Measurements from patent US9181182B2, “S1P receptors modulators” (Akaal Pharma PTY LTD, priority 2008, dated 2015).
Structures can show the parent of a compound that is named as a salt.

What was measured:
[1] = test system: Human promyelocytic leukemia (HL-60) cells; assay: Cell viability (growth inhibition) assay, MTS; format: cell-based; conditions: 50% reduction in cell viability of HL-60 cells, 48 hr incubation
Experimental: In order to measure the apoptotic effect of compounds on the metabolic activity of viable cells, the following assay was performed on Human promyelocytic leukemia cells. The assay utilises the tetrazolium compound (3-(4,5-dimethylthiazol-2-yl)-5-(3-carboxymethoxyphenyl)-2-(4-sulfophenyl)-2H-tetrazolium, inner salt; (MTS) and an electron coupling reagent (phenazine methosulfate; (PMS). MTS is bioreduced by cells into a formazan product the optical absorbance of which is measured directly from 96 well assay plates. The conversion of MTS into aqueous, soluble formazan is accomplished by dehydrogenase enzymes found in metabolically active cells. The quantity of formazan product as measured by the amount of 490 nm absorbance is directly proportional to the number of living cells in culture.
The assay was based on the National Cancer Institute (NCI) protocol, briefly, cells were grown in RPMI 1640 media supplemented with 10% FCS (foetal calf serum) and kept at 37° C. in a humidified environment with 5% CO2.
For the growth inhibition assay, Human promyelocytic leukemia (HL-60) cells were seeded at a density of 10,000 cells per well in 96 well plates in a volume of 100 μl and allowed to grow for 24 h. Compounds were serially diluted in DMSO at concentrations 100 fold higher than used in the assay (100×). Compounds were freshly prepared for each experiment. The 100× stocks were then diluted to 2× stocks into media and immediately, 100 μl of this 2× stock was added to the cells to create the desired final concentration of drug with a DMSO concentration of 1%. One row of each 96 well plate was treated with DMSO alone as a control. Cells were then incubated for a further 48 hr. Metabolic activity was determined using MTS (Promega) (90% 1.6 mg/ml MTS, 10% 1.6 mg/ml PMS (phenazine methosulfate) made fresh in PBS). 50 μl of this mix was added to all wells of the plates and allowed to incubate for 1.5-2 hr. Plates were shaken gently for about 15 min and absorbance was read on a plate reader at 490 nm. Averages were taken of the readings at each point with standard deviation and plotted using MicroCal Origin.

[2] = target: S1P1 human receptor (Homo sapiens (Human), UniProt P21453); assay: S1P1 [35S]-GTPgamaS binding assay (agonist activity); format: biochemical; conditions: for EC50S1P1/EC50S1P: potency at S1P1 relative to S1P; for EC50: GTPgamaS binding, agonist; for Efficacy (% of maximum): S1P1, relative to reference agonist S1P
Experimental: Selected Compounds of the Examples were evaluated at Millipore Corporation, USA, using S1P1 receptor; [^35S]-GTPgamaS binding assay. A [^35S]-GTPgamaS binding assay at Millipore was conducted by GPCR Profiler™ Custom Service Laboratory, Temecula, Calif., Millipore, Inc. to monitor dose-dependent agonist selectivity for selected Examples against the S1P1 receptors. The assay was completed with sample compounds subjected to an eight-point, four-fold dose response curve with starting concentration of 10 μM. Selectivity was determined upon initial addition of compounds followed by a 30 minute incubation at 30° C. Following compound incubation, bounded [^35S]-GTPgamaS was determined by filtration and scintillation counting.
(§1) Independently, selected compounds were evaluated for S1P1 and S1P3 agonistic activity. The S1P1 assay system was GTPgama-S35 binding in membranes from CHO K1 cells, expressing S1P1 human receptor. The S1P3 assay system was calcium mobilization in CHO K1 cells expressing S1P3 human receptor. […] Compounds were tested initially at a concentration of 10 μM.

[3] = target: S1P3 human receptor (Homo sapiens (Human), UniProt Q99500); assay: S1P3 calcium mobilization in CHO K1 cells; format: cell-based; conditions: NA = Not Active
Experimental: as §1

Chain of S1P1 human receptor (P21453 whole entry): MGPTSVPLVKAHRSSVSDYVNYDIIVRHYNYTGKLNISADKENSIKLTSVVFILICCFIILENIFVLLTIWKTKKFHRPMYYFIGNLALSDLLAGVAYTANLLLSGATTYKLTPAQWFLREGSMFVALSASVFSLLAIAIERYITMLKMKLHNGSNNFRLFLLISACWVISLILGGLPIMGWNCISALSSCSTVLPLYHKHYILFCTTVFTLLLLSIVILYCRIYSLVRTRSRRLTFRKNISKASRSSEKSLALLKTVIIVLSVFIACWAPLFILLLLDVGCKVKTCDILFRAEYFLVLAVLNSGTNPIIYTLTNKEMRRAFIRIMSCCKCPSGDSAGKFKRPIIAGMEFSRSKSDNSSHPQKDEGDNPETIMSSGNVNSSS
Chain of S1P3 human receptor (Q99500 whole entry): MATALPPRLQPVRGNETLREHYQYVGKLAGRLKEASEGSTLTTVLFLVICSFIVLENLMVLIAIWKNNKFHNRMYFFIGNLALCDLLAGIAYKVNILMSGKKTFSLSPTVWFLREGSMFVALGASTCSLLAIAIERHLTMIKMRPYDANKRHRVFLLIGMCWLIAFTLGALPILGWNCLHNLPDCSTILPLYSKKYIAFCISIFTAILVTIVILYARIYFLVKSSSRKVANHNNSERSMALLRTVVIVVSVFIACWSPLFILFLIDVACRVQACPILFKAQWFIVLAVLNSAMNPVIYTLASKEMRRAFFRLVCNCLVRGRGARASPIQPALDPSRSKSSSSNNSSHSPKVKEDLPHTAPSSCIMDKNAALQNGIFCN

Molecule | IC50 [1] | EC50S1P1/EC50S1P [2] | IC50 ([1]; Homo sapiens) | EC50 [2] | Efficacy (% of maximum) [2] | EC50 [3]
2-Amino-2-((5-(5-3-(1-admantyl)-3-methoxyphenyl)-1,2,4-oxadiazol-3-yl)indolin-1-yl)methyl)propane-1,3-diol [Example 33] | 2910 ± 130 nM | >1000 |  |  |  | 
NC(CO)(CO)CN1CCc2c(OCc3cc4c(Cl)cc(Cl)cc4o3)cccc21 [41(a), 2-Amino-2-((4-((4,6-dichlorobenzofuran-2-yl)methoxy)indolin-1-yl)methyl)propane-1,3-diol] |  | 144.46 | 2550 ± 780 nM | > 1360 nM | 42% | 
CCCCCCCCc1ccc2c(c1)CN(CC(N)(CO)CO)C2 [Example 2, 2-Amino-2-((5-octylisoindolin-2-yl)methyl)propane-1,3-diol] |  | 593 | 3480 ± 140 nM | 1560 nM | 91% | 
CCCCCCCCc1ccc2c(c1)CCN2CC(N)(CO)CO [Example 3, 2-Amino-2-((5-octylindolin-1-yl)methyl)propane-1,3-diol] |  | 709 | 3700 ± 1020 nM | 2110 nM | 73% | 
COc1ccc(-c2nc(-c3ccc4c(c3)CCN4CC(N)(CO)CO)no2)cc1Cl [Example 7, 2-Amino-2-((5-(5-(3-chloro-4-methoxyphenyl)-1,2,4-oxadiazol-3-yl)indolin-1-yl)methyl)propane-1,3-diol] |  | 278 | 3070 ± 460 nM | 783 nM | 109% | 
NC(CO)(CO)CN1CCc2cc(OCc3cc4c(Cl)cc(Cl)cc4o3)ccc21 [Example 8, 2-Amino-2-((5-((4,6-dichlorobenzofuran-2-yl)methoxy)indolin-1-yl)methyl) propane-1,3-diol] |  | 23 | 1930 ± 580 nM | 131 nM | 85% | 
CCCCCCCCc1ccc2c(c1)CCCN2CC(N)(CO)CO [Example 9, 2-Amino-2-((6-octyl-3,4-dihydroquinolin-1(2H)-yl)methyl)propane-1,3-diol] |  | >1000 | 2460 ± 510 nM | > 860 nM |  | 
CCCCCCCCc1ccc2c(c1)CCN(CC(N)(CO)CO)C2 [Example 10, 2-Amino-2-((6-octyl-3,4-dihydroisoquinolin-2(1H)-yl)methyl)propane-1,3-diol] |  | >1000 | 1380 ± 170 nM | > 510 nM |  | 
CC1(C)C2CCC(CCOc3ccc(CCC(N)(CO)CO)cc3)C1C2.Cl (stereo not shown) [Example 23, 2-Amino-2-(4-(2-(6,6-dimethylbicyclo[3.1.1]heptan-2-yl)ethoxy)phenethyl) propane-1,3-diol hydrochloride salt] |  | 419 | 2260 ± 680 nM | 1240 nM | 72% | 
COc1ccc(-c2nc(-c3ccc4c(c3)CCN4CC(N)(CO)CO)no2)cc1C12CC3CC(CC(C3)C1)C2 [Example 30] | 3190 ± 260 nM | >1000 |  | > 55400 nM |  | 
CCOc1ccc(-c2nc(-c3cccc4c3ccn4CC(N)(CO)CO)no2)cc1OCC [Example 35, 2-Amino-2-((4-(5-(3,4-diethoxyphenyl)-1,2,4-oxadiazol-3-yl)-1H-indol-1-yl)methyl)propane-1,3-diol] |  | 4.75 | 1700 ± 100 nM | 54 nM | 106% | 
NC(CO)(CO)CN1CCc2c(-c3noc(-c4ccc(-c5ccccc5C(F)(F)F)cc4)n3)cccc21 [Example 36, 2-Amino-2-((4-(5-(2′-(trifluoromethyl)biphenyl-4-yl)-1,2,4-oxadiazol-3-yl)indolin-1-yl)methyl)propane-1,3-diol] |  | 65 | 1310 ± 350 nM | 501 nM | 99% | 
NC(CO)(CO)CN1CCc2cc(OCc3cccc(F)c3)ccc2C1 [Example 37, 2-Amino-2-((6-(3-fluorobenzyloxy)-3,4-dihydroisoquinolin-2(1H)-yl)methyl)propane-1,3-diol] |  |  | 26900 ± 9160 nM |  |  | 
Cc1cc2cc(-c3nc(-c4cccc5c4CCN5CC(N)(CO)CO)no3)ccc2o1 [Example 42, 2-Amino-2-((4-(5-(2-methylbenzofuran-5-yl)-1,2,4-oxadiazol-3-yl)indolin-1-yl)methyl)propane-1,3-diol] |  | 117.8 | 1700 ± 100 nM | 1420 nM | 92% | 
CCCOc1ccc(-c2nc(-c3cccc4c3CCN4CC(N)(CO)CO)no2)cc1OCCC [Example 43, 2-Amino-2-((4-(5-(3,4-di-propoxyphenyl)-1,2,4-oxadiazol-3-yl)indolin-1-yl)methyl)propane-1,3-diol] |  | 2.22 |  | 18 nM | 89% | 3100 nM
CCOc1ccc(-c2nc(-c3cccc4c3ccn4CC(N)(CO)CO)no2)cc1Cl [Example 49, 2-Amino-2-((4-(5-(3-chloro-4-ethoxyphenyl)-1,2,4-oxadiazol-3-yl)-1H-indol-1-yl)methyl)propane-1,3-diol] |  | 9.26 | 10200 nM | 114 nM | 112% | 
CCCOc1ccc(-c2nc(-c3cccc4c3CCN4CC(N)(CO)CO)no2)cc1Cl [Example 50, 2-Amino-2-((4-(5-(3-chloro-4-propoxyphenyl)-1,2,4-oxadiazol-3-yl)indolin-1-yl)methyl)propane-1,3-diol] |  | 1.3 | 3000 ± 170 nM | 17.9 nM | 87% | 
NC(CO)(CO)CN1CCc2c(-c3noc(C45CC6CC(CC(C6)C4)C5)n3)cccc21 [Example 57, 2-Amino-2-((4-(5-(1-adamantyl)-1,2,4-oxadiazol-3-yl)indolin-1-yl)methyl) propane-1,3-diol] |  | 268.44 | 1000 nM |  | 82% | 
CCOc1ccc(-c2nc(-c3ccc(C4=CCN(CC(N)(CO)CO)CC4)cc3)no2)cc1OCC [Example 58, 2-Amino-2-((4-(4-(5-(3,4-diethoxyphenyl)-1,2,4-oxadiazol-3-yl)phenyl)-5,6-dihydropyridin-1(2H)-yl)methyl)propane-1,3-diol] |  | 150 | 1700 nM | > 2060 nM | 60% | 
CC(C)Oc1ccc(CCN(C)CC(N)(CO)CO)cc1C12CC3CC(CC(C3)C1)C2 [Example 60, 2-Amino-2-(((3-(1-admantyl)-4-isopropoxyphenethyl)(methyl)amino)methyl)propane-1,3-diol] | 3300 ± 260 nM |  |  |  |  | 
CC(C)Oc1cc2c(cc1C13CC4CC(CC(C4)C1)C3)CN(CC(N)(CO)CO)CC2 [Example 61, 2-Amino-2-((7-(1-admantyl)-6-isopropoxy-3,4-dihydroisoquinolin-2(1H)-yl)methyl)propane-1,3-diol] | 3270 ± 120 nM |  |  |  |  | 
NC(CO)(CO)CN1CCC2CCCCC2C1 (stereo not shown) [Example 62, 2-Amino-2-((octahydroisoquinolin-2(1H)-yl)methyl)propane-1,3-diol] |  |  | > 100000 nM |  |  | 
CCCCCCCCOc1ccc(CCC(N)(CO)CO)cc1C12CC3CC(CC(C3)C1)C2.Cl [Example 63, 2-Amino-2-(3-(1-admantyl)-4-(octyloxy)phenethyl)propane-1,3-diol hydrochloride salt] | 2400 ± 620 nM | 3188.66 |  | > 40000 nM |  | 
NC(CO)(CO)CCc1ccc(-c2ccc(O)c(C34CC5CC(CC(C5)C3)C4)c2)cc1 [Example 64, 2-Amino-2-(2-(3′-(1-admantyl)-4′-hydroxybiphenyl-4-yl)ethyl)propane-1,3-diol hydrochloride salt] | 3440 ± 120 nM |  |  |  |  | 
CCCCCCCCc1ccc(CCC(N)(CO)CO)cc1 [FTY 720, 2-amino-2-(2-[4-octylphenyl]ethyl)-1,3-propanediol, reference compound] |  |  | 3340 ± 190 nM |  | 99% | 
